Peptide text beside a SMILES is read from it.
How the values were obtained:
[1] = test system: MB231 breast cancer cells; conditions: summary table
Description: A typical in vitro screen for anti-tumor or anti-cancer effects was carried out as follows.
An aliquot of 2,000 MB231 breast cancer cells (breast carcinoma cells) in 100 μl DMEM complete media (Sigma Chemical Co.) was plated in a 96 well plate containing at a concentration of 20 μg/ml a test substance or control water. To measure proliferation of the cancer cells, an aliquot of 20 μl of MTS reagent (Promega Co.) was added to each well and the cells were incubated at 37° C. for a total of three days. The cells rapidly metabolized MTS reagent and the metabolized MTS reagent was measured at 490 nm at the end of days 1, 2 and 3. The reading was proportional to the number of cancer cells. The decrease in absorbance at each time point indicated fewer cancer cells. At the end of day 3, the decrease in absorbance with respect to the control indicated the inhibition by the test substance.

[2] = topical treatment of chronic inflammation, erythema, eczema with thick scales and itch, clinical evaluation; type: in vivo, human; conditions: Example 10: subject, -NH2 0.3% and -OEt 0.5% (w/v) in WEP442
Source text: The involved skin was divided into two lesions for testing. The subject topically applied twice daily to one lesion, N-Ac-L-Tyr-L-Tyr-L-Tyr-NH2 0.3% (w/v) in WEP442, pH 5.9 solution composition, prepared according to Example 2, and to second lesion, N-Ac-L-Tyr-L-Tyr-L-Tyr-OEt 0.5% (w/v) in WEP 442, pH 6.0, prepared according to Example 2. […] The treated skin had 90-95% improvement as judged by clinical evaluation.

[3] = summary of test results in volunteer subjects, efficacy grades; type: in vivo, human; conditions: efficacy grade
Source text: Subject 1. Person had multiple red and itchy inflammation, dermatitis, or eczema lesions, which were resistant to conventional treatments including corticosteroids. Subject 2. Person had small red and itchy lesions which were resistant to topical corticosteroid treatment. Subject 3. Person had multiple red and itchy inflammation, dermatitis, or eczema lesions over the body for many years, which were resistant to conventional treatments including corticosteroids. Subject 4. Person had red and itchy inflammation, dermatitis, or eczema lesions for many years, which were resistant to topical corticosteroid treatment. Subject 5. Person had early stage of aging related skin changes on both forearms as indicated by age spots and wrinkled skin caused by solar damage. Subject 6. Person had age spots, keratoses and wrinkles on both forearms caused by intrinsic and extrinsic aging. Subject 7. Person had age spots, and wrinkles on both forearms caused by intrinsic and extrinsic aging. Subject 8. Person had osteoarthritis of both knees with inflammation and pain for more than 4 years, and had only mild transitory relief from conventional treatments. Subject 9. Person had sensitive skin with inflammatory lesions on the body. Subject 12. Person had dermatitis and inflammatory lesions on the left palm. Subject 14. Person had multiple age spots including lentigines and keratosis on their face. Subject 15. Person had psorisis Subject 16. Person had sensitive skin and eczema for more than 40 years
In another embodiment, the volunteer subject topically applied the test compositions containing N-acylpeptide derivatives of the present invention on involved skin or lesions once or twice daily for several weeks or until the involved lesions completely cleared and clinically changed to normal skin. As a control study, the subject also topically applied a vehicle control composition on the involved skin or lesions twice daily for the same period.
(§1) In yet another embodiment, the volunteer subject topically applied once or twice daily the test compositions containing N-acylpeptide derivatives of the present invention on the skin site above arthritic joints or painful muscles to provide therapeutic effects for the systemic disorders via topical administration.
(§2) In yet another embodiment, the volunteer subject injected intra-articularly into a knee joint a test composition containing a N-acylpeptide derivative of the present invention to improve and reduce arthritic inflammation and pain of the joint.
Some test results are summarized as follows.
DK: Disturbed keratinization AG: Aging related changes of skin, nail and hair DI: Deranged immune disorders and inflammation ND: Nerve disorders CA: Tumors and/or cancers

[4] = topical treatment of bilateral inter-metacarpal atrophy of hands; type: in vivo, human; conditions: Example 23: subject, 2% (w/v) in EP73 two to three times daily, three weeks
Source text: A subject had bilateral inter-metacarpal atrophy of both hands with certain restrictions of hand movements. The subject topically applied two to three times daily N-Ac-L-Tyr-L-Tyr-L-Tyr-OEt, 2% (w/v) in EP73 on the back of their left hand, and vehicle control EP73 on the back of their right hand for three weeks.
The subject now, topically applied twice daily N-Ac-L-Tyr-L-Tyr-L-Tyr-NH2, 1% (w/v) in WEP442 on the back of their left hand as a mantenace therapy.

[5] = knee osteoarthritis, intra-articular injections; type: in vivo, human; conditions: for duration of relief of pains / period of diminished edema and inflammation of the knees and lower legs / time after injection until pains in both knees disappeared: Example 18: subject; for duration of relief of pains / period of diminished edema and inflammation of the knees and lower legs: intra-articular 1 mg each knee; for time after injection until pains in both knees disappeared: intra-articular 1 mg each knee (-OH 1% in water 0.1 ml; -OEt 0.2% with 1% methyl cellulose 0.5 ml)
Description: A subject had severe osteoarthritis of both knees for more than four years. Prior therapy had included intra-articular injections of corticosteroids and hyaluronic acid as well as celecoxib (Celebrex) orally (200 mg) twice daily. Such therapy had provided only mild transitory relief of knee pain and edema, and edema of lower legs.
Intra-articular injections of 1% (w/v) N-Ac-L-Tyr-L-Tyr-L-Tyr-OH in water, 0.1 ml (1 mg) as prepared in Example 4 were administered to each knee. The pains in both knees disappeared about 20-30 minutes after the injections, and the relief of pains lasted for 24 hours. Edema and inflammation of the knees and lower legs had diminished for approximately the same 24 hour period. Repeat injections of the same composition were administered once a week for several weeks to provide continued relief of pain, edema and inflammation.
In another trial, intra-articular injections of 0.2% (w/v) N-Ac-L-Tyr-L-Tyr-L-Tyr-OEt with 1% (w/v) methyl cellulose in water, 0.5 ml (1 mg) as prepared in Example 4 were also administered to each knee at different times. The pains in both knees disappeared about 20-30 minutes after the injections, and the relief of pains lasted for 24 hours. Edema and inflammation of the knees and lower legs had diminished for approximately the same 24 hour period.
A subject had osteoarthritis of both knees for more than four years. […] Intra-articular injections of each knee with N-Ac-L-Tyr-L-Tyr-L-Tyr-OH, 7-13 mg in aqueous solution had provided substantial relief of pain in the joints for 2-3 days.
as §2

[6] = knee osteoarthritis, topical maintenance therapy; type: in vivo, human; conditions: Example 25: subject, 1% (w/v) in EP73 topically 2-3 times daily on skin covering the knee areas
Source text: as §1

[7] = topical treatment of telangiectatic rosacea, clinical evaluation; type: in vivo, human; conditions: Example 22: subject, face, 1% (w/v) in WEP442 twice daily, two weeks
Source text: A subject had rosacea on their face with erythema, inflammation and dilated blood vessels, described as telangiectatic rosacea. The subject topically applied twice daily N-Ac-L-Tyr-L-Tyr-L-Tyr-OEt, 1% (w/v) in WEP442 for two weeks. At the end of two weeks, the erythema and inflammation had diminished, and improvement in rduced size of telangiectatic blood vessels was discernible. The rosacea lesions had approximately 25% improvement as judged by clinical evaluation.

[8] = skin plump / skin thickness test after topical application, caliper measurement; type: in vivo, human; conditions: for increased skin thickness: 1% (w/v) in WEP442 three times daily
Description: In one of the studies related to skin changes associated with aging, skin thickness was measured by micrometer calipers as follows.
The skin was grasped with a 2×6 cm metal hinge: the internal faces of which were coated with emery cloth to prevent slippage, and manually squeezed to threshold subject discomfort. Combined thickness of two whole-skin layers including thickness of the two hinge leaves was measured with micrometer calipers. Thickness of the two hinge leaves was subtracted to determine the actual thickness of two whole-skin layers. Triplicate measurements on treated sites were done and an average number was used for calculation of the skin thickness.
In other studies, test sites of skin 17 mm in diameter were used, the circular sites were marked with permanent ink. Intervening control sites were also 17 mm in diameter. Thickness of skin of all sites was measured directly by means of an electronic digital caliper. In this instance the jaws of the caliper were opened to 17 mm, applied with pressure to the skin sites and then closed to firm tightness. Thickness of skin was then read off the screen of the calipers. Measurements of all sites were made in triplicates. […]

[9] = skin thickness after intradermal injection on the forearms; type: in vivo, human; conditions: Example 15: subject, intradermal 0.05 ml (0.5 mg) of 1% in water, after 8 days
Description: In other studies, test sites of skin 17 mm in diameter were used, the circular sites were marked with permanent ink. Intervening control sites were also 17 mm in diameter. Thickness of skin of all sites was measured directly by means of an electronic digital caliper. In this instance the jaws of the caliper were opened to 17 mm, applied with pressure to the skin sites and then closed to firm tightness. Thickness of skin was then read off the screen of the calipers. Measurements of all sites were made in triplicates.
A typical systemic administration by intradermal injection was carried out as follows. A subject, injected intradermally on the forearms the following N-acylpeptide derivative of the present invention:
(a). N-Ac-L-Tyr-L-Tyr-L-Tyr-OH, 0.05 ml (0.5 mg) of 1% in water, after 8 days, there was 10-20% increase in skin thickness of 6 mm size skin at the injection site: effective for aging skin. (b). N-Ac-L-Ala-L-Leu-L-Lys-L-His-L-Arg-NH2 (SEQ ID NO: 51), 0.05 ml (0.5 mg) of 1% in water. (c). N-Bz-L-Ala-L-Leu-L-Lys-L-His-L-Arg-NH2 (SEQ ID NO: 65), 0.05 ml (0.5 mg) of 1% in water. (d). N-Ac-(EEASPEAVAGVGFESK)-NH2 (SEQ ID NO: 126), 0.1 ml (0.4 mg) of 0.4% in water.

[10] = urination (diuretic effect) after topical application on forehead; type: in vivo, human; conditions: Example 17: subject, 0.2% in WEP442 on forehead, about one hour later; repeated next day with same result
Source text: The subject then topically applied N-Ac-L-Tyr-L-Tyr-L-Tyr-OH, 0.2% in WEP442 on their forehead. […] The subject repeated the same procedure the next day, and obtained the same result.

CC(=O)N[C@@H](CCC(=O)O)C(=O)N[C@@H](CCC(=O)O)C(=O)N[C@@H](C)C(=O)N[C@@H](CO)C(=O)N1CCC[C@H]1C(=O)N[C@@H](CCC(=O)O)C(=O)N[C@@H](C)C(=O)N[C@H](C(=O)N[C@@H](C)C(=O)NCC(=O)N[C@H](C(=O)NCC(=O)N[C@H](C(=O)N[C@@H](CCC(=O)O)C(=O)N[C@@H](CO)C(=O)N[C@@H](CCCCN)C(N)=O)c1ccccc1)C(C)C)C(C)C [N-Ac-(EEASPEAVAGVGBESK)-NH2] (HELM PEPTIDE1{[ac].E.E.A.S.P.E.A.V.A.G.V.G.[Phg].E.S.K.[am]}$$$$V2.0)
CA (Tumors and/or cancers) [1]: 9% Inhibition

N-Ac-L-Tyr-L-Tyr-L-Tyr-OEt
itch [2]: stopped within a few minutes
AG: Aging related changes of skin, nail and hair [3]: 3+ (3+: 75% Efficacy)
DI: Deranged immune disorders and inflammation [3]: 3+ (3+: 75% Efficacy)
DK: Disturbed keratinization [3]: 3+ (3+: 75% Efficacy)
ND: Nerve disorders [3]: 4+ (4+: 95-100% Efficacy)
inter-metacarpal atrophy of left hand [4]: disappeared almost completely
duration of relief of pains [5]: 24 h
period of diminished edema and inflammation of the knees and lower legs [5]: ~24 h
time after injection until pains in both knees disappeared [5]: 20 to 30 min
knee joint pain under maintenance therapy [6]: continued relief of knee joint pains
improvement of rosacea lesions as judged by clinical evaluation [7]: approximately 25%
increase in skin thickness ([8]; Example 9: subject, severe photodamage, forearm spots, 0.5% (w/v) in WEP721 (spot A in WEP442) four times daily, 10 days): 20-30%
increase in skin thickness ([8]; Example 19: subject, right extensor forearm, 0.8% (w/v) in WEP442 three times daily, four weeks): approximately 33%
skin condition of test site vs vehicle control ([8]; Example 20: subject, photoaging forearms, 0.5% (w/v) in WEP442 three times daily, four weeks): palpably raised, smooth, less wrinkled and increased in skin thickness
increased skin thickness ([8]; Example 20: subject, photoaging forearms, four weeks): approximately 12%
skin thickness on the back of left hand (average) ([8]; Example 24: subject, 2% (w/v) in EP73 two to three times daily, six weeks, starting thickness 1.70 mm): 2.59 mm
increase over the starting skin thickness ([8]; Example 24: subject, back of left hand, 2% (w/v) in EP73 two to three times daily, six weeks): 52%

N-Ac-L-Tyr-L-Tyr-L-Tyr-OH
AG: Aging related changes of skin, nail and hair [3]: 2+ (2+: 50% Efficacy)
DI: Deranged immune disorders and inflammation [3]: 3+ (3+: 75% Efficacy)
DK: Disturbed keratinization [3]: 2+ (2+: 50% Efficacy)
ND: Nerve disorders [3]: 3+ (3+: 75% Efficacy)
duration of relief of pains [5]: 24 h
period of diminished edema and inflammation of the knees and lower legs [5]: ~24 h
time after injection until pains in both knees disappeared [5]: 20 to 30 min
duration of substantial relief of pain in the joints ([5]; Example 25: subject, intra-articular 7-13 mg in aqueous solution each knee): 2 to 3 days
increase in skin thickness of 6 mm size skin at the injection site [9]: 10-20%
increased skin thickness ([8]; Example 21: subject, sun damaged forearms, one week): approximately 29%
urination [10]: urge for urination

From patent US20170112748A1, “N-ACYLPEPTIDE DERIVATIVES AND THEIR USES” (NeoStrata Company, Inc., priority 2012, published 2017)
